Among the test systems are SK-OV-3 ovarian; SF-295 CNS; NCI-H460 lung; NCI-H23 lung; PC-3 prostate; SK-MEL-5 melanoma; OVCAR-3 ovarian; HL-60(TB) leukemia; HCC-2998 colon; HOP-92 NSCLC.
Holding throughout (experiment): inhibition of tumour cell growth, NCI panel, 48 h

Several values for one entry are separate records, joined by “and”; a condition that tells them apart may be missing. Equal values may be shown once.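 1) Cells in 96-well plates. 2) Compound, 48 h, 5 concentrations. 3) Linear interpolation between surrounding doses. 4) Unreached endpoint = highest concentration. GI50 is the concentration that inhibits growth by half. TGI marks complete inhibition of growth.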 A value given as a limit tells only on which side of the number the result lay.

On to `CC(C)(C)c1ccc(Oc2ccc(N)cn2)cc1`, for which the GI50 with SK-OV-3 ovarian was above 100 µM; with SF-295 CNS it was 45.8 µM; in the experiment on NCI-H460 lung, 72.3 µM; with NCI-H23 lung, 53 µM; in the experiment on PC-3 prostate, 8.02 µM; with SK-MEL-5 melanoma, 25.8 µM. For the same compound, the GI50 is 26 µM with OVCAR-3 ovarian, 0.545 µM in the experiment on HL-60(TB) leukemia and above 100 µM with HCC-2998 colon. Moreover, the TGI was above 100 µM in the experiment on SK-OV-3 ovarian; above 100 µM in the experiment on SF-295 CNS; above 100 µM in the experiment with NCI-H460 lung; above 100 µM with NCI-H23 lung; above 100 µM in the experiment with PC-3 prostate; 79.2 µM in the experiment on SK-MEL-5 melanoma. The figures for the TGI in the experiment on OVCAR-3 ovarian, in the experiment with HL-60(TB) leukemia and in the experiment with HCC-2998 colon were above 100 µM, 17.4 µM and above 100 µM, respectively.
As for `OC(COC(c1ccccc1)(c1ccccc1)c1ccccc1)C(O)CC1SCCS1` (centres undefined), the TGI in the experiment on SK-OV-3 ovarian is 48.9 µM; in the experiment with NCI-H23 lung, 40 µM; with PC-3 prostate, 31.8 µM; in the experiment on SK-MEL-5 melanoma, 40.1 µM; in the experiment with OVCAR-3 ovarian, 62.9 µM; in the experiment on HL-60(TB) leukemia it was above 100 µM.
On to `CCC(C)Nc1ccc(N)cc1` (centres undefined), for which the GI50 in the experiment with SK-OV-3 ovarian is 4.98 µM; with SF-295 CNS it was 4.91 µM; in the experiment with NCI-H460 lung, 3.85 µM; with NCI-H23 lung, 2.89 µM; with PC-3 prostate it was 2.56 µM; in the experiment with SK-MEL-5 melanoma it was 2.86 µM. For the same compound, the GI50 in the experiment with OVCAR-3 ovarian is 2.28 µM; with HL-60(TB) leukemia, 1.48 µM; in the experiment with HCC-2998 colon, 4.39 µM. Moreover, the TGI is 93.3 µM with SK-OV-3 ovarian; 20.1 µM in the experiment on SF-295 CNS; 13.9 µM with NCI-H460 lung; 8.89 µM with NCI-H23 lung; 11.2 µM with PC-3 prostate; 9.05 µM in the experiment with SK-MEL-5 melanoma. Also, the TGI in the experiment with OVCAR-3 ovarian is 5.54 µM; in the experiment on HL-60(TB) leukemia, 5.05 µM; in the experiment on HCC-2998 colon, 16.1 µM.
Turning to `CCOC(=O)c1cc2c(cc1Cl)SC(=Nc1ccccc1)N(S(=O)(=O)c1ccc(Cl)cc1)S2(=O)=O`, the GI50 is 17.4 µM in the experiment with SK-OV-3 ovarian; 19.5 µM with SF-295 CNS; 18.8 µM in the experiment on NCI-H460 lung; 13.5 µM with NCI-H23 lung; 12.2 µM with PC-3 prostate; 9.5 µM in the experiment with SK-MEL-5 melanoma. Further, the GI50 in the experiment on OVCAR-3 ovarian was 12.2 µM; in the experiment on HCC-2998 colon, 13.5 µM. The TGI is 35.2 µM in the experiment on SK-OV-3 ovarian; 48.6 µM in the experiment on SF-295 CNS; 46.7 µM in the experiment with NCI-H460 lung; 29.8 µM in the experiment with NCI-H23 lung; 28.6 µM in the experiment on PC-3 prostate; 21.6 µM in the experiment with SK-MEL-5 melanoma. In addition, the TGI with OVCAR-3 ovarian worked out at 26.3 µM; with HCC-2998 colon it was 27.9 µM.
Take `Cc1cccc(C)c1NC(=O)C1=NC(=S)NC(c2ccccc2)C1c1nc2ccccc2s1` (centres undefined): the TGI with SK-OV-3 ovarian, with SF-295 CNS, in the experiment on NCI-H460 lung, with NCI-H23 lung, with SK-MEL-5 melanoma and in the experiment with HOP-92 NSCLC was above 100 µM each time. For the same compound, the TGI in the experiment with OVCAR-3 ovarian, in the experiment on HL-60(TB) leukemia and in the experiment on HCC-2998 colon was above 100 µM each time.
On to `O=C(CC1OC(O)C(Cl)=C1Cl)c1cccnc1` (centres undefined), for which the TGI in the experiment with SK-OV-3 ovarian, with SF-295 CNS, in the experiment with NCI-H460 lung, in the experiment with NCI-H23 lung, with SK-MEL-5 melanoma and in the experiment on HOP-92 NSCLC was above 100 µM throughout. For the same compound, the TGI in the experiment on OVCAR-3 ovarian, with HL-60(TB) leukemia and in the experiment on HCC-2998 colon was above 100 µM throughout.
Turning to `CCCCCCCCCCCCCC[N+](C)(C)CCCCCCCCCCCCCC`, the GI50 with SK-OV-3 ovarian is 3.6 µM; in the experiment with SF-295 CNS, 7.72 µM; in the experiment on NCI-H23 lung, 2.12 µM; in the experiment on PC-3 prostate, 1.85 µM; in the experiment on OVCAR-3 ovarian, 3.58 µM; in the experiment with HL-60(TB) leukemia, 2.07 µM. Moreover, the GI50 in the experiment with HCC-2998 colon is 2.26 µM. The TGI with SK-OV-3 ovarian was determined as 19.7 µM; with SF-295 CNS, 37.7 µM; in the experiment with NCI-H23 lung, 6.13 µM; with PC-3 prostate, 4.45 µM; in the experiment with OVCAR-3 ovarian, 20.5 µM; in the experiment on HL-60(TB) leukemia, 4.89 µM. In the experiment on HCC-2998 colon, the TGI is 5.28 µM.
For the compound `CC(C)(C)C1CCC2c3c([nH]c4ccccc34)C3C(=O)N(c4ccc(Cl)cc4)C(=O)C3C2C1` (centres undefined), the GI50 with SK-OV-3 ovarian is above 100 µM; with NCI-H460 lung, 37.2 µM and > 10 µM; in the experiment with NCI-H23 lung, 58.4 µM and > 10 µM; with PC-3 prostate, 37.4 µM and > 10 µM; in the experiment with SK-MEL-5 melanoma it was above 100 µM; in the experiment on OVCAR-3 ovarian it was 30.3 µM and > 10 µM. Moreover, the GI50 in the experiment on HCC-2998 colon was 22.1 µM and > 10 µM. Besides, the TGI in the experiment with SK-OV-3 ovarian, with NCI-H460 lung, in the experiment on NCI-H23 lung, in the experiment with PC-3 prostate, with SK-MEL-5 melanoma and in the experiment with OVCAR-3 ovarian was above 100 µM in each case. Further, the TGI was 38.8 µM and > 10 µM in the experiment on HL-60(TB) leukemia; 81.6 µM and > 10 µM with HCC-2998 colon.
Take `c1ccc(C2OC3(CCC[C@H]4C[C@H]43)O[C@H]2c2ccccc2)cc1` (some centres undefined): the TGI in the experiment with SK-OV-3 ovarian is above 100 µM; in the experiment on SF-295 CNS, above 100 µM; in the experiment on NCI-H460 lung, above 100 µM; in the experiment on NCI-H23 lung it was above 100 µM; in the experiment with SK-MEL-5 melanoma, 65.7 µM; with HOP-92 NSCLC it was 66.2 µM. Further, the TGI in the experiment with OVCAR-3 ovarian is above 100 µM; with HL-60(TB) leukemia it was 41.1 µM; in the experiment with HCC-2998 colon it was above 100 µM.

(Values after PubChem BioAssay (NCI).)
